Data reported in US20260097101A1, “Compositions for Use in the Treatment of Diabetes or Obesity” (Dia Beta Labs Ltd, priority 2022, published 2026).
Where two headings read alike, the source gives them in different places. Values belong to the molecule of their own block, whether it stands above or below them. No end group written: not given here.

Columns and labels:
[1] = biological target: T1, purified porcine DPP-4 (Sus scrofa, UniProt P22411); assay: In vitro DPP-4 stability (RP-HPLC and MALDI-ToF degradation profiles); type: in vitro ADME; settings: for DPP-4 stability: pH 7.4
T1 construct: purchased Sigma-Aldrich
T1 sequence (P22411 whole entry): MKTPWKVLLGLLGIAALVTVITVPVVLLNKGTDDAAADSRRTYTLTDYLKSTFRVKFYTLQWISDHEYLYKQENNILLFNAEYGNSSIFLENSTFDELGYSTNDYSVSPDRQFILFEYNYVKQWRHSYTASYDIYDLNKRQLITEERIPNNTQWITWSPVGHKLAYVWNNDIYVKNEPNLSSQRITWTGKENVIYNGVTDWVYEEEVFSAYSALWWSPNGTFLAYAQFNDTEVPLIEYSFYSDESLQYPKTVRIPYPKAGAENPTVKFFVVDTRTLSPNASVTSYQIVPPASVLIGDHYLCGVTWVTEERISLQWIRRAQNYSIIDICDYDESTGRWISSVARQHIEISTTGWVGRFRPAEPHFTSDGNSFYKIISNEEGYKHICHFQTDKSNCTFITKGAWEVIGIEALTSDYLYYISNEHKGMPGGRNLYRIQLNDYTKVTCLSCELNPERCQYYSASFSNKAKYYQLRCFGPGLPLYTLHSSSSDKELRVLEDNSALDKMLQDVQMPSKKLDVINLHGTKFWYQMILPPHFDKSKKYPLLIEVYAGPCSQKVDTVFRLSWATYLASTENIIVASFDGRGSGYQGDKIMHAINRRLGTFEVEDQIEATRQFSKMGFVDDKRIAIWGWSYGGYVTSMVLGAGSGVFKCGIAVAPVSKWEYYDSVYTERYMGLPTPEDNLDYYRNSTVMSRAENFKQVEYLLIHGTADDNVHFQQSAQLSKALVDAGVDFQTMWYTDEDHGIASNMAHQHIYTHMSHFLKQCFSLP
Protocol: To establish in vitro stability of PP and [P^3]PP, peptides (10 μg) were incubated with purified porcine DPP-4 (5 mU in 50 mmol/l triethanolamine/HCl, pH 7.4; Sigma-Aldrich) for 0-8 hours and degradation profiles examined using RP-HPLC and MALDI-ToF, employing the same systems as outlined above. Sequence of native PP and [P3]PP using one letter amino acid notation. The amino acid substitution in [P3]PP is denoted by bold underlined text. In vitro DPP-4 stability was assessed following incubation of test peptides with purified DPP-4 (5 mU) for 0-8 h.

[2] = tested on: BRIN-BD11 cells; assay: Beta-cell proliferation (Ki-67 staining), with and without Y4 antagonist (S)-VU0637120; type: cell-based, rodent; settings: 10^-8 and 10^-6 M, 18 h
Protocol: FIG. 1 illustrates the effects PP peptides on cell viability, insulin release, proliferation and apoptosis from rodent BRIN-BD11 cells. (A) Cells were incubated with test peptides (10^−8-10^−6 M) for 18 h prior to addition of MTT. (B, C) Cells were incubated (20 min) with (B) 16.7 mM glucose or (C) 16.7 mM glucose supplemented with alanine (10 mM), alone and together with test peptides (10^−12-10^−6 M) and insulin secretion assessed by RIA. (D, E) To assess effects on BRIN BD11 beta-cell proliferation and apoptosis and receptor selectivity, cells were incubated with test peptides (10^−8-10^−6 M) alone, or together with cytokine mix (IL-1β 100 Uml, IFN-γ 20 U/ml, TNF-α 200 U/ml), in the absence and presence of the Y4 antagonist, (S)-VU0637120, (10^−5 M), as specified, for 18 h prior to staining for (D) Ki-67 or (E) TUNEL. Values are mean±SEM (n=8). *p<0.05, **p<0.01 and ***p<0.001 compared with appropriate control culture, namely (A, D, E) media alone or (B, C) 16.7 mM glucose. ^Δp<0.05, ^ΔΔp<0.01, ^ΔΔΔp<0.001 compared to (C) 10 mM alanine or (E) cytokine mix. ^φp<0.05, ^φφp<0.01, ^φφφp<0.001 compared to effects in the absence of the NPYR4 antagonist (S)-VU0637120. […] Proliferation/TUNEL positive frequency was determined using the cell-counter function on ImageJ Software and expressed as % of total cells analysed, as described previously from our laboratory. […]

DPP-4 stability [1]: <2 h
Molecule: CC[C@H](C)[C@H](NC(=O)[C@H](Cc1ccc(O)cc1)NC(=O)[C@H](CCCNC(=N)N)NC(=O)[C@H](CCCNC(=N)N)NC(=O)[C@H](CC(C)C)NC(=O)[C@H](CC(=O)O)NC(=O)[C@H](C)NC(=O)[C@H](C)NC(=O)[C@H](Cc1ccc(O)cc1)NC(=O)[C@H](CCC(N)=O)NC(=O)[C@H](C)NC(=O)[C@H](CCSC)NC(=O)[C@H](CCC(N)=O)NC(=O)[C@H](CCC(=O)O)NC(=O)[C@@H]1CCCN1C(=O)[C@@H](NC(=O)[C@H](C)NC(=O)[C@H](CC(N)=O)NC(=O)[C@H](CC(=O)O)NC(=O)CNC(=O)[C@@H]1CCCN1C(=O)[C@H](Cc1ccc(O)cc1)NC(=O)[C@@H](NC(=O)[C@@H]1CCCN1C(=O)[C@H](CCC(=O)O)NC(=O)[C@H](CC(C)C)NC(=O)[C@@H]1CCCN1C(=O)[C@H](C)N)C(C)C)[C@@H](C)O)C(=O)N[C@@H](CC(N)=O)C(=O)N[C@@H](CCSC)C(=O)N[C@@H](CC(C)C)C(=O)N[C@H](C(=O)N[C@@H](CCCNC(=N)N)C(=O)N1CCC[C@H]1C(=O)N[C@@H](CCCNC(=N)N)C(=O)N[C@@H](Cc1ccc(O)cc1)C(N)=O)[C@@H](C)O [Native PP]
DPP-4 mediated degradation [1]: generation of the N-terminally cleaved product, PP(3-36)

DPP-4 mediated degradation ([1]; incubation with DPP-4, 0-8 h): completely resistant
DPP-4 stability ([1]; purified DPP-4 (5 mU), incubation 0-8 h): >8 h
Molecule: APPEPVYPGDNAKPEQMAQYAADLRRYINMKTRPRY-NH2 (C-terminus assumed) [[P^3]PP]

Molecule: GLP-1: GLP-1 (10^-8 and 10^-6 M) employed as control in proliferation studies
BRIN-BD11 cell proliferation (Ki-67) [2]: augmented
